Source: patent publication US5324725A, “7-fused 2-(piperazinoalkyl) indole derivatives, intermediates and compositions thereof” (Kali-Chemie Pharma GmbH, priority 1991, dated 1994)

Key:
[1] = system: Passive cutaneous anaphylaxis (P.C.A.); assay: Inhibition of passive cutaneous anaphylaxis (P.C.A.); format: in vivo, rat (Sprague-Dawley); conditions: Rattus norvegicus, 1 h; rats, 2 × 10^-5 mol/kg p.o., one hour before ovalbumin challenge
Method in brief: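 Sprague-Dawley rats (150-180 g) were sensitized intradermally with rat IgE-rich anti-ovalbumin serum and challenged 24 h later with i.v. ovalbumin 8.25 mg/kg plus Evans blue. Compound was given orally at 2×10^-5 mol/kg 1 h before challenge. Dye exudation was scored visually at 30 min as % inhibition versus vehicle controls.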

[2] = system: Histamine-induced anaphylactoid reactions; assay: Inhibition of anaphylactoid cutaneous reaction induced by histamine; format: in vivo, rat (Sprague-Dawley); conditions: Rattus norvegicus, 1 h; rats, 2 × 10^-5 mol/kg p.o., one hour before challenge; histamine intradermal
Method in brief: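 Animals received 50 μl intradermal histamine (0.8 mg/ml in saline) in the flank opposite the antiserum site, just before i.v. ovalbumin plus blue dye. Test substance at 2×10^-5 mol/kg was given orally 1 h before challenge in water with 1% DMF and 1% Tween 20. Blue-dye exudation was scored visually at 30 min, giving % inhibition versus solvent controls.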

Cc1ccnc(N2CCN(CCc3c(C)n4c5c(cc(NC(=O)c6ccccc6)cc35)CCC4)CC2)c1 [Example 25, 8-Benzoylamino-5,6-dihydro-2-methyl-1-{2-[4-(4-methylpyridin-2-yl)piperazin-1-yl]-ethyl}-4H-pyrrolo[3,2,1-ij]quinoline]
inhibition in vivo at 20 µmol/kg [1]: 100%
inhibition in vivo at 20 µmol/kg [2]: 100%

C=CCCC1CCc2cccc3c(CCN4CCN(c5cc(C)ccn5)CC4)c(C)n1c23 (centres unmarked) [Example 62]
inhibition in vivo at 20 µmol/kg [1]: 100%
inhibition in vivo at 20 µmol/kg [2]: 95%

CCCCCCCC1CCc2cccc3c(CCN4CCN(c5cc(C)ccn5)CC4)c(C)n1c23 (centres unmarked) [Example 4, 4-n-heptyl-5,6-dihydro-2-methyl-1-{2-[4-(4-methylpyridin-2-yl)piperazin-1-yl]ethyl}-4H-pyrrolo[3,2,1-ij]-quinoline]
inhibition in vivo at 20 µmol/kg [1]: 55%
inhibition in vivo at 20 µmol/kg [2]: 55%

Cc1ccnc(N2CCN(CCc3c(C)n4c5c(cccc35)CCC4)CC2)c1 [Example 1, 5,6-Dihydro-2-methyl-1-{2-[4-(4-methylpyridin-2-yl)piperazin-1-yl]ethyl}-4H-pyrrolo[3,2,1-ij]quinoline]
inhibition in vivo at 20 µmol/kg [1]: 98%
inhibition in vivo at 20 µmol/kg [2]: 85%

CCCCC1CCc2cccc3c(CCN4CCN(c5cc(C)ccn5)CC4)c(C)n1c23 (centres unmarked) [Example 73, 4-n-butyl-5,6-dihydro-2-methyl-1-{2-[4-(4-methylpyridin-2-yl)piperazin-1-yl]ethyl}-4H-pyrrolo[3,2,1-ij]quinoline]
inhibition in vivo at 20 µmol/kg [1]: 100%
inhibition in vivo at 20 µmol/kg [2]: 95%

CCCCC1CCc2cc(C(=O)C(C)C)cc3c(CCN4CCN(c5cc(C)ccn5)CC4)c(C)n1c23 (centres unmarked) [Example 23, 4-n-Butyl-5,6-dihydro-8-(2-methyl-1-oxopropyl)-2-methyl-1-{2-[4-(4-methylpyridin-2-yl)piperazin-1-yl]ethyl}-4H-pyrrolo[3,2,1-ij]quinoline]
inhibition in vivo at 20 µmol/kg [1]: 100%
inhibition in vivo at 20 µmol/kg [2]: 95%

Cc1c(CCN2CCN(c3ccccn3)CC2)c2cccc3c2n1CCC3 [Example 37]
inhibition in vivo at 20 µmol/kg [1]: 60%
inhibition in vivo at 20 µmol/kg [2]: 58%

Cc1ccnc(N2CCN(CCc3c(C)n4c5c(cccc35)CCC4c3ccc(O)cc3)CC2)c1 (centres unmarked) [Example 61]
inhibition in vivo at 20 µmol/kg [1]: 100%
inhibition in vivo at 20 µmol/kg [2]: 100%

CC(C)=Cc1cc2c3c(c1)c(CCN1CCN(c4cc(C)ccn4)CC1)c(C)n3CCC2 [Example 26, 5,6-Dihydro-2-methyl-8-(2-methylprop-1-enyl)-1-{2-[4-(4-methylpyridin-2-yl)piperazin-1-yl]ethyl}-4H-pyrrolo[3,2,1-ij]quinoline]
inhibition in vivo at 20 µmol/kg [1]: 95%
inhibition in vivo at 20 µmol/kg [2]: 90%

COc1ccc(C2CCc3cc(OC)cc4c(CCN5CCN(c6cc(C)ccn6)CC5)c(C)n2c34)cc1 (centres unmarked) [Example 65]
inhibition in vivo at 20 µmol/kg [1]: 100%
inhibition in vivo at 20 µmol/kg [2]: 95%

Cc1ccnc(N2CCN(CCc3c(C)n4c5c(ccc(C(O)C(C)C)c35)SCC4)CC2)c1 (centres unmarked) [Example 90]
inhibition in vivo at 20 µmol/kg [1]: 81%
inhibition in vivo at 20 µmol/kg [2]: 77%

Cc1ccnc(N2CCN(CCc3c(C)n4c5c(cccc35)SCC4)CC2)c1 [Example 11, 5-Methyl-6-{2-[4-(4-methylpyridin-2-yl)piperazin-1-yl]ethyl}-2,3-dihydro-pyrrolo[1,2,3-de]-1,4-benzo-thiazine]
inhibition in vivo at 20 µmol/kg [1]: 100%
inhibition in vivo at 20 µmol/kg [2]: 93%

Cc1ccnc(N2CCN(CCc3c(C)n4c5c(cc([N+](=O)[O-])cc35)CCC4)CC2)c1 [Example 10, 2-Methyl-8-nitro-1-{2-[4-(4-methylpyridin-2-yl)-piperazin-1-yl]ethyl}-5,6-dihydro-4H-pyrrolo[3,2,1-ij]quinoline]
inhibition in vivo at 20 µmol/kg [1]: 83%
inhibition in vivo at 20 µmol/kg [2]: 75%

Cc1ccnc(N2CCN(CCc3c(C)n4c5c(cccc35)CCC4c3ccccc3)CC2)c1 (centres unmarked) [Example 3, 5,6-dihydro-2-methyl-4-phenyl-1-{2-[4-(4-methylpyridine-2-yl)piperazin-1-yl]-ethyl}-4H-pyrrolo[3,2,1-ij]quinoline]
inhibition in vivo at 20 µmol/kg [1]: 100%
inhibition in vivo at 20 µmol/kg [2]: 93%

Cc1cc2c3c(c1)c(CCN1CCC(C(=O)c4ccc(F)cc4)CC1)c(C)n3CCC2 [Example 55]
inhibition in vivo at 20 µmol/kg [1]: 80%
inhibition in vivo at 20 µmol/kg [2]: 50%

COc1ccc(-c2c(CCN3CCN(c4cc(C)ccn4)CC3)c3cccc4c3n2CCC4)cc1 [Example 7, 2-(4-methoxy-phenyl)-1-{2-[4-(4-methylpyridin-2-yl)piperazin-1-yl]ethyl}-5,6-dihydro-4H-pyrrolo[3,2,1-ij]quinoline]
inhibition in vivo at 20 µmol/kg [1]: 75%
inhibition in vivo at 20 µmol/kg [2]: 35%

Cc1ccnc(N2CCN(CCc3c(C)n4c5c(cccc35)CC4C)CC2)c1 (centres unmarked) [Example 33]
inhibition in vivo at 20 µmol/kg [1]: 100%
inhibition in vivo at 20 µmol/kg [2]: 93%

Cc1ccnc(N2CCN(CCc3c(C)n4c5c(cc(C(O)C(C)C)cc35)CCC4)CC2)c1 (centres unmarked) [Example 19, 5,6-Dihydro-8-(1-hydroxy-2-methylpropyl)-2-methyl-1-{2-[4-(4-methylpyridin-2-yl)piperazin-1-yl]ethyl}-4H-pyrrolo-[3,2,1-ij]quinoline]
inhibition in vivo at 20 µmol/kg [1]: 95%
inhibition in vivo at 20 µmol/kg [2]: 95%

CCCCC1CCc2cc(OC)cc3c(CCN4CCN(c5cc(C)ccn5)CC4)c(C)n1c23 (centres unmarked) [Example 63]
inhibition in vivo at 20 µmol/kg [1]: 100%
inhibition in vivo at 20 µmol/kg [2]: 95%

Cc1ccnc(N2CCN(CCc3c(C)n4c5c(cc(Cc6ccccc6)cc35)CCC4)CC2)c1 [Example 77]
inhibition in vivo at 20 µmol/kg [1]: 60%
inhibition in vivo at 20 µmol/kg [2]: 30%

Cc1ccnc(N2CCN(CCc3c(C)n4c5c(cc(C)cc35)CCC4)CC2)c1 [Example 54]
inhibition in vivo at 20 µmol/kg [1]: 93%
inhibition in vivo at 20 µmol/kg [2]: 73%

Cc1ccnc(N2CCN(CCc3c(C)n4c5c(cc(Br)cc35)CCC4)CC2)c1 [Example 9, 8-Bromo-2-methyl-1-{2-[4-(4-methylpyridin-2-yl)piperazin-1-yl]ethyl}-5,6-dihydro-4H-pyrrolo[3,2,1-ij]quinoline]
inhibition in vivo at 20 µmol/kg [1]: 90%
inhibition in vivo at 20 µmol/kg [2]: 80%

CC(=O)c1cc2c3c(c1)c(CCN1CCN(c4cc(C)ccn4)CC1)c(C)n3CCC2 [Example 67]
inhibition in vivo at 20 µmol/kg [1]: 100%
inhibition in vivo at 20 µmol/kg [2]: 95%

Cc1ccnc(N2CCN(CCc3c(C)n4c5c(cc(C(=O)c6ccccc6)cc35)CCC4)CC2)c1 [Example 66]
inhibition in vivo at 20 µmol/kg [1]: 80%
inhibition in vivo at 20 µmol/kg [2]: 70%

CCc1c(CCN2CCN(c3cc(C)ccn3)CC2)c2cccc3c2n1CCC3 [Example 15, 2-Ethyl-5,6-dihydro-1-{2-[4-(4-methylpyridin-2-yl)piperazin-1-yl]ethyl}-4H-pyrrolo[3,2,1-ij]quinoline]
inhibition in vivo at 20 µmol/kg [1]: 85%
inhibition in vivo at 20 µmol/kg [2]: 65%

Cc1ccnc(N2CCN(CCc3c(C)n4c5c(cccc35)C(C)CC4)CC2)c1 (centres unmarked) [Example 57]
inhibition in vivo at 20 µmol/kg [1]: 100%
inhibition in vivo at 20 µmol/kg [2]: 95%

Cc1ccnc(N2CCN(CCc3c(C)n4c5c(ccc(Cl)c35)OCC4)CC2)c1 [Example 35]
inhibition in vivo at 20 µmol/kg [1]: 75%
inhibition in vivo at 20 µmol/kg [2]: 58%

Cc1ccnc(N2CCN(CCc3c(C)n4c5c(cc(C(=O)C(C)C)cc35)CCC4)CC2)c1 [Example 27, 5,6-dihydro-2-methyl-8-(2-methyl-1-oxopropyl)-1-{2-[4-(4-methylpyridin-2-yl)piperazin-1-yl]ethyl}-4H-pyrrolo-[3,2,1-ij]quinoline]
inhibition in vivo at 20 µmol/kg [1]: 100%
inhibition in vivo at 20 µmol/kg [2]: 95%
